Experimental findings from US20250214982A1, “COMPOUNDS USABLE AS MODULATORS OF PERK ACTIVITY” (Ramot at Tel-Aviv University Ltd., priority 2022, published 2025) are described below.

Converted amounts (≈) assume the structure as drawn.

In general, solubility refers to the concentration that dissolves in the medium under given conditions. A low value points to little dissolved substance. The term logD denotes the decadic logarithm of the distribution of all forms, ionised or not, between an organic phase and buffer at a given pH. Low values mean a more hydrophilic compound, high ones a more lipophilic compound.

One data set relates to STHdhQ111/111 cells. Nature of the data set: ER stress (tunicamycin)-induced apoptosis in STHdhQ111/111 cells. The following applies: 10 μM compound, tunicamycin 48 hours, read from FIG. 2. The class given is cell-based, murine. Here is the method:
FIG. 2 presents comparative plots showing the apoptosis rate of STHdh^Q111/111 cells as a function of concentration of the exemplary compounds GLB11 and GLC19, following incubation with tunicamycin for 48 hours), as described for FIG. 1. P values *<0.05, **<0.01, ***<0.001. The asterisks indicate the significance compared to untreated cells.
Cell culture and transfections: Mouse embryonic fibroblasts (MEF) cells were grown as described in the art. Murine striatal cell line expressing full-length polyQ-expanded Htt (STHdhQ111/111) cells were grown as described in Leitman et al. [PLOS One 2014, 9 (3): e90803]. HEK 293 and VERO cells were grown in DMEM supplemented with 10% bovine calf serum at 37° C. under 5% CO2.
Apoptosis: Apoptosis was measured by cell cycle progression using propidium iodide (PI), considering the fraction beneath G0/G1.
Statistical analysis: Generally, the results are expressed as mean±standard deviation of 3 independent experiments. Apoptosis in the presence of tunicamycin and in the absence of other compounds was normalized to 100 to allow comparison between experiments. Significance by Two-tailed Student's t-test.
In order to assess the effect of the exemplary compounds on apoptosis, similar assays were performed in mouse embryonic fibroblasts (MEF; FIG. 1) and in STHdhQ111/111 cells (FIG. 2).

A short description of another data set: Solubility. The data set is classed as physicochemical. The following applies: for solubility compared to MK-28 (fold higher): relative to MK-28. Here is the method: (§1) The solubility and lipophilicity of GLB7 and GLB11, two exemplary compounds according to some embodiments of the present invention, were measured compared to the PERK activator MK-28.
A short description of the next data set: Lipophilicity (logD7.4). The data set is classed as physicochemical. Here is the method: as §1
The next data set concerns the target T1, PERK (Homo sapiens, UniProt Q9NZJ5).
T1 construct: endogenous in cells; host or cells: HEK293
T1 sequence (Q9NZJ5 30-1116): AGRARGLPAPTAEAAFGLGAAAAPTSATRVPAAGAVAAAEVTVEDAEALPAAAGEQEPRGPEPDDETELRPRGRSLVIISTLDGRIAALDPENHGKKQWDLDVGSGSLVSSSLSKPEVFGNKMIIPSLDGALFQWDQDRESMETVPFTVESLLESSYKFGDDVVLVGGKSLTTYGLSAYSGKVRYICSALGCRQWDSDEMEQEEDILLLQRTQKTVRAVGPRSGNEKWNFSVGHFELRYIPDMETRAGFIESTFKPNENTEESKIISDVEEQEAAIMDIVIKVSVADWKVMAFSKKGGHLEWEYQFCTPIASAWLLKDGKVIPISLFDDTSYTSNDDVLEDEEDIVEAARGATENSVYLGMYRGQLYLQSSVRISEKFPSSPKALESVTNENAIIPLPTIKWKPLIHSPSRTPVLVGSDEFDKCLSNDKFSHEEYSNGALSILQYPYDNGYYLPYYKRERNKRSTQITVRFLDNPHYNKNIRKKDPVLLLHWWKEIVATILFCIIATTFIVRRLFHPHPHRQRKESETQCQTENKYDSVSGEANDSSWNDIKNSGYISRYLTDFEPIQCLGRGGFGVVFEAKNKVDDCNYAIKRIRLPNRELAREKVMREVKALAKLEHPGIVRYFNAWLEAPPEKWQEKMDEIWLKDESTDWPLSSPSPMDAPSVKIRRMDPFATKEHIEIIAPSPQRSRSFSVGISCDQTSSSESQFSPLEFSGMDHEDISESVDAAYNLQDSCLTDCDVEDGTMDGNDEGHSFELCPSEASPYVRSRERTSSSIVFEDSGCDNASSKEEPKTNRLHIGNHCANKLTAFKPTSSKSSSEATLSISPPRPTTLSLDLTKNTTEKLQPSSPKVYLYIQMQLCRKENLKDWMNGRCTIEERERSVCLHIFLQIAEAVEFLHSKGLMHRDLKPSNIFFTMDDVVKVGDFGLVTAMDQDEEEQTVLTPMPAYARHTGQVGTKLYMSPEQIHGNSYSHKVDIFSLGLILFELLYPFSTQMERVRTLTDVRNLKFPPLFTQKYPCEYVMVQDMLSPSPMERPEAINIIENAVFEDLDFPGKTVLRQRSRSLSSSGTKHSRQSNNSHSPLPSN
Nature of the data set: PERK activation: eIF2α phosphorylation relative to total eIF2α in HEK293 cells (Western blot). The class given is cell-based. As to conditions: for increase in eIF2α phosphorylation relative to total eIF2α: 24 hours. Here is the method: FIG. 3A presents comparative bar graphs showing the effect of treatment with MK-28 or GLB7 (5 μM, 10 μM or 20 μM, as indicated), on the levels of eIF2α-phosphorylation (eIF2α-P) relatively to total eIF2α (eIF2α) in lysed HEK293 cells. Treatment with MK-28 began 24 hours before lysis. Data was obtained from quantification of Western blots (FIG. 3B), and immunoblotting was performed with anti-eIF2α-P or anti-total eIF2α antibodies.
For this purpose, HEK293 cells were untreated or treated with 5, 10 or 20 μM GLB7 or MK-28. After 24 hours, the cells were lysed and the phosphorylated eIF2α levels were measured relatively to the total eIF2α (a substrate of PERK).

For `CN(/N=C/c1ccc(C(F)(F)F)cc1)c1nc(-c2ccccc2)cc(-c2ccccc2)n1` [GLC19, (E)-2-(1-methyl-2-(4-(trifluoromethyl)benzylidene) hydrazinyl)-4,6-diphenyl pyrimidine], the reduction of apoptosis entry with STHdhQ111/111 cells is “about 20%”.

In turn, `Oc1ccc(C=NNc2nc(-c3ccccc3)cc(-c3ccccc3)n2)cc1O` (racemic) [GLB7, 4-((2-(4,6-diphenylpyrimidin-2-yl)hydrazono)methyl)benzene-1,2-diol] came in with a solubility in “Solubility” of 16 µM (≈ 6.12 µg/mL). For the same molecule, the “solubility compared to MK-28 (fold higher)” value in “Solubility” is reported as > 10 fold. Further, the “lipophilicity compared to MK-28” value in the data set “Lipophilicity (logD7.4)” (relative to MK-28) is listed as “decreased”. Besides, the entries for the “increase in eIF2α phosphorylation relative to total eIF2α” value on PERK (5 μM), on PERK (10 μM) and at PERK (20 μM) were ~70%, 50% and 65%, respectively. Moreover, on PERK (lowest examined dose of 5 μM), the “PERK activation compared to MK-28” value is given as “higher levels of PERK activation”.

Regarding `CN(NCc1ccc(O)c(O)c1)c1nc(-c2ccccc2)cc(-c2ccccc2)n1` [GLB11], the reduction of apoptosis entry in the data set on STHdhQ111/111 cells is listed as “about 20%”. Moreover, in “Solubility”, the solubility amounted to 6 µM (≈ 2.39 µg/mL) and the “solubility compared to MK-28 (fold higher)” value is reported as > 4 fold. Besides, the log distribution coefficient (logD) in the data set “Lipophilicity (logD7.4)” (pH 7.4) was determined as 4.8.
